Tests used:
BRM = target: T1, BRM (Homo sapiens, UniProt P51531); assay: ATPase catalytic activity of BRM, ADP-Glo in vitro biochemical assay; details: ATPase catalytic activity, 30 nM BRM, 400 μM ATP, read-out: BRM IP50 (μM)*
T1 construct: made in house; host or cells: High Five insect cells

BRG-1 = target: T2, BRG-1 (Homo sapiens, UniProt P51532); assay: ATPase catalytic activity of BRG-1, ADP-Glo in vitro biochemical assay; details: ATPase catalytic activity, 30 nM BRG-1, 400 μM ATP, read-out: BRG1 IP50 (μM)*
T2 construct: made in house; host or cells: High Five insect cells
T2 sequence (P51532 whole entry): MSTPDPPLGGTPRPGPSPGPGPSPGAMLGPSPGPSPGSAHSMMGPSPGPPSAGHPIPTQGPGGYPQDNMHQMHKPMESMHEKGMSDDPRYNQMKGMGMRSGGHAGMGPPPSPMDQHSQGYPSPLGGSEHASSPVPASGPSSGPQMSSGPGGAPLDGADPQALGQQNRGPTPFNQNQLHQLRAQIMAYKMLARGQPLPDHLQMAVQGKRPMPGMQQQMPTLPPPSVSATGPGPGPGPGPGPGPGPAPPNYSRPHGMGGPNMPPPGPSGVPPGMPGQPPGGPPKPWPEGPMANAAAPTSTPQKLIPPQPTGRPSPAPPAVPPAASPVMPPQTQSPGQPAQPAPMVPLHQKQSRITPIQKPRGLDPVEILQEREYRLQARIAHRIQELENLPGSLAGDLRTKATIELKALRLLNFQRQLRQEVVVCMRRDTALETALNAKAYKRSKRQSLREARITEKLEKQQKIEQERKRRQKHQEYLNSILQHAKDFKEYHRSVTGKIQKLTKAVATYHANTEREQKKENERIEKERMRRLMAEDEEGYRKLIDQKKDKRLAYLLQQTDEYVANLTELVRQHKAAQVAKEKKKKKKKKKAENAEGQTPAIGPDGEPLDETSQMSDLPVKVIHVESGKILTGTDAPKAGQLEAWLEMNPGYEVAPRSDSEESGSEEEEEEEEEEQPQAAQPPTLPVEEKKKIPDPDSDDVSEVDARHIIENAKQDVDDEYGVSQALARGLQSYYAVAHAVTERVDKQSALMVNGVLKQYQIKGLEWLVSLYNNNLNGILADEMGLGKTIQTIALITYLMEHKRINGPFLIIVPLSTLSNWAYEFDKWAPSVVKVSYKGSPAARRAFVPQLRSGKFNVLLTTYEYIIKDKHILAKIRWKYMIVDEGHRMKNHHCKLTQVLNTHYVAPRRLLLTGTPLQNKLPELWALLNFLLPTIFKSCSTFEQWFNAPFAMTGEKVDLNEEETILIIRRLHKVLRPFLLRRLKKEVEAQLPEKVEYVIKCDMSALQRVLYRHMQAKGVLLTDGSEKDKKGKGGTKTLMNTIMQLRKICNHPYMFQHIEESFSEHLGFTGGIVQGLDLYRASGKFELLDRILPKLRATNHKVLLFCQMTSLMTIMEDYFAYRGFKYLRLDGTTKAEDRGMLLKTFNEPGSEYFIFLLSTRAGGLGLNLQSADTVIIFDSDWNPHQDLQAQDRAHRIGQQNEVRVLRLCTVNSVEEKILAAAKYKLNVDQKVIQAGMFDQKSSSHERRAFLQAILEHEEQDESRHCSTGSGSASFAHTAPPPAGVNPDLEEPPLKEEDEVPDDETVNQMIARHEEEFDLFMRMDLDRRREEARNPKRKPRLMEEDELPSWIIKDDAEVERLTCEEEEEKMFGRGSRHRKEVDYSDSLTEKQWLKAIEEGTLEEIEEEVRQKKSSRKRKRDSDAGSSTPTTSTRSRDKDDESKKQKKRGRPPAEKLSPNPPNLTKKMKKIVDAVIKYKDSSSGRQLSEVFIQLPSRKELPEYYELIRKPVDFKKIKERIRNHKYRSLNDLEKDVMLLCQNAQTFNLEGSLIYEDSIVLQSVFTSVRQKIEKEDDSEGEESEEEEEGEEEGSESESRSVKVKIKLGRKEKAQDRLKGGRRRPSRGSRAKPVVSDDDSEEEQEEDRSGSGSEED

T1 sequence (P51531 whole entry): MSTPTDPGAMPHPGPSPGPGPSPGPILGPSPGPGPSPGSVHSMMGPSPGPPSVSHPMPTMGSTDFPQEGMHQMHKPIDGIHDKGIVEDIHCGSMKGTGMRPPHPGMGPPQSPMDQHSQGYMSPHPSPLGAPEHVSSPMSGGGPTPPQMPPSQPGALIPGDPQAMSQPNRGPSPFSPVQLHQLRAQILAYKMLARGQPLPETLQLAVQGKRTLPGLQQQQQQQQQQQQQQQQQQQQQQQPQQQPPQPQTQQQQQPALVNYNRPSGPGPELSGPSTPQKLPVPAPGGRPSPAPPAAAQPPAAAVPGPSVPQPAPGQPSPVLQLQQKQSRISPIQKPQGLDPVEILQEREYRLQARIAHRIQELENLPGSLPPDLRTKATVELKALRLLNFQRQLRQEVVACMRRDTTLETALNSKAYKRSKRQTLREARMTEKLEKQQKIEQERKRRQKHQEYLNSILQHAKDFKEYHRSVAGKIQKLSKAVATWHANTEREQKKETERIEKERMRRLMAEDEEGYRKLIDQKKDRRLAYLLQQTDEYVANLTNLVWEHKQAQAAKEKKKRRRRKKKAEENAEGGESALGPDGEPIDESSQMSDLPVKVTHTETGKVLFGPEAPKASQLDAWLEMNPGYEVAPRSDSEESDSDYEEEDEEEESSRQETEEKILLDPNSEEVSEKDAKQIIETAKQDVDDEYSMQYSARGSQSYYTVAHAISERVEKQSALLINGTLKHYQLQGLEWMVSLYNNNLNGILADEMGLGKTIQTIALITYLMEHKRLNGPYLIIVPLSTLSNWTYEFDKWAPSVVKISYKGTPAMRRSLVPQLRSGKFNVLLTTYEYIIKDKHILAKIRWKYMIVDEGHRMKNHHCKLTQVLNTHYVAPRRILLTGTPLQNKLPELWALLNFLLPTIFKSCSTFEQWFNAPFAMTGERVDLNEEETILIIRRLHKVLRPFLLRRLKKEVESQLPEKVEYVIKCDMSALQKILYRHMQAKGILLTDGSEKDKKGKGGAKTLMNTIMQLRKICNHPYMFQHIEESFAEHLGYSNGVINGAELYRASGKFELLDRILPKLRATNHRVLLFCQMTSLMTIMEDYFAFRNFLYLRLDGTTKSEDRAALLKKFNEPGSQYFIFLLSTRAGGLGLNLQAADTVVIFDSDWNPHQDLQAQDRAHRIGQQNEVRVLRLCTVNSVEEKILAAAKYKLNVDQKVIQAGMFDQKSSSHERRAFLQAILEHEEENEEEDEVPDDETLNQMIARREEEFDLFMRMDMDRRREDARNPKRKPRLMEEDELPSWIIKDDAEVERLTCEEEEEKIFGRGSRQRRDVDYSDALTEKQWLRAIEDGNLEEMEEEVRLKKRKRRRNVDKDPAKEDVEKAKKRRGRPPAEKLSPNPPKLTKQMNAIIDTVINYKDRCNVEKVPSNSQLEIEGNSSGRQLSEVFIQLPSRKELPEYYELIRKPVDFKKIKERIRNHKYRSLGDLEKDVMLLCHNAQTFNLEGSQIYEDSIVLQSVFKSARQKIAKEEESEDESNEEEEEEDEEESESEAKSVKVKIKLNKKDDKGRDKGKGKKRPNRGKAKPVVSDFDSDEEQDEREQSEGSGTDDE

| SMILES | IC50 (BRM) [µM] | IC50 (BRG-1) [µM] |
| --- | --- | --- |
| COc1cccc(-c2csc(NC(=O)CNC(=O)c3ccn(C(C)(C)C)c3)n2)c1 [Compound 120, 1-(tert-butyl)-N-(2-((4-(3-methoxyphenyl)thiazol-2-yl)amino)-2-oxoethyl)-1H-pyrrole-3-carboxamide] | > 0.01 | > 0.1 |
| COc1cccc(-c2csc(NC(=O)CNC(=O)c3ccn(S(C)(=O)=O)c3)n2)c1 [Compound 121, N-(2-((4-(3-methoxyphenyl)thiazol-2-yl)amino)-2-oxoethyl)-1-(methylsulfonyl)-1H-pyrrole-3-carboxamide] | > 0.01 | > 0.01 |
| CC(C)(C)n1ccc(C(=O)NCC(=O)Nc2nc(-c3cccc(OCC4COC4)c3)cs2)c1 [Compound 122, 1-(tert-butyl)-N-(2-((4-(3-(oxetan-3-ylmethoxy)phenyl)thiazol-2-yl)amino)-2-oxoethyl)-1H-pyrrole-3-carboxamide] | > 0.01 | > 0.01 |
| CN1Cc2ccc(-c3csc(NC(=O)CNC(=O)c4ccn(C(C)(C)C)c4)n3)cc2CC1=O [Compound 124, 1-(tert-butyl)-N-(2-((4-(2-methyl-3-oxo-1,2,3,4-tetrahydroisoquinolin-6-yl)thiazol-2-yl)amino)-2-oxoethyl)-1H-pyrrole-3-carboxamide] | > 0.01 | > 0.1 |
| CN1CCC(OCc2cccc(-c3csc(NC(=O)CNC(=O)c4ccn(C(C)(C)C)c4)n3)c2)C(F)(F)C1 (stereo not shown) [Compound 128, 1-(tert-butyl)-N-(2-((4-(3-(((3,3-difluoro-1-methylpiperidin-4-yl)oxy)methyl)phenyl)thiazol-2-yl)amino)-2-oxoethyl)-1H-pyrrole-3-carboxamide] | > 0.1 | > 0.1 |
| Cn1ncc2ccc(-c3csc(NC(=O)CNC(=O)c4ccn(C(C)(C)C)c4)n3)cc21 [Compound 131, 1-(tert-butyl)-N-(2-((4-(1-methyl-1H-indazol-6-yl)thiazol-2-yl)amino)-2-oxoethyl)-1H-pyrrole-3-carboxamide] | > 0.01 | > 0.1 |
| Cn1ncc2ccc(-c3csc(NC(=O)CNC(=O)c4ccn(S(C)(=O)=O)c4)n3)cc21 [Compound 132, N-(2-((4-(1-methyl-1H-indazol-6-yl)thiazol-2-yl)amino)-2-oxoethyl)-1-(methylsulfonyl)-1H-pyrrole-3-carboxamide] | > 0.01 | > 0.01 |
| CN1Cc2ccc(-c3csc(NC(=O)CNC(=O)c4ccn(C(C)(C)C)c4)n3)cc2N(C)C1=O [Compound 134, 1-(tert-butyl)-N-(2-((4-(1,3-dimethyl-2-oxo-1,2,3,4-tetrahydroquinazolin-7-yl)thiazol-2-yl)amino)-2-oxoethyl)-1H-pyrrole-3-carboxamide] | > 0.01 | > 0.1 |
| CC(C)(C)n1ccc(C(=O)NCC(=O)Nc2nc(-c3cccc(CO[C@H]4CCOC4)c3)cs2)c1 [Compound 135, (S)-1-(tert-butyl)-N-(2-oxo-2-((4-(3-(((tetrahydrofuran-3-yl)oxy)methyl)phenyl)thiazol-2-yl)amino)ethyl)-1H-pyrrole-3-carboxamide] | > 0.01 | > 0.01 |
| CC(C)(C)n1ccc(C(=O)NCC(=O)Nc2nc(-c3cccc(CO[C@@H]4CCOC4)c3)cs2)c1 [Compound 136, (R)-1-(tert-butyl)-N-(2-oxo-2-((4-(3-(((tetrahydrofuran-3-yl)oxy)methyl)phenyl)thiazol-2-yl)amino)ethyl)-1H-pyrrole-3-carboxamide] | > 0.01 | > 0.01 |
| CS(=O)(=O)n1ccc(C(=O)NCC(=O)Nc2nc(-c3cccc(C4(N)CCOCC4)c3)cs2)c1 [Compound 138, N-(2-((4-(3-(4-aminotetrahydro-2H-pyran-4-yl)phenyl)thiazol-2-yl)amino)-2-oxoethyl)-1-(methylsulfonyl)-1H-pyrrole-3-carboxamide] | > 1 | > 1 |
| CC(C)(O)c1cccc(-c2csc(NC(=O)CNC(=O)c3ccn(S(C)(=O)=O)c3)n2)c1 [Compound 139, N-(2-((4-(3-(2-hydroxypropan-2-yl)phenyl)thiazol-2-yl)amino)-2-oxoethyl)-1-(methylsulfonyl)-1H-pyrrole-3-carboxamide] | > 0.1 | > 0.1 |
| CC(C)(C)c1cccc(-c2csc(NC(=O)CNC(=O)c3ccn(S(C)(=O)=O)c3)n2)c1 [Compound 140, N-(2-((4-(3-(tert-butyl)phenyl)thiazol-2-yl)amino)-2-oxoethyl)-1-(methylsulfonyl)-1H-pyrrole-3-carboxamide] | > 0.1 | > 0.1 |
| CS(=O)(=O)n1ccc(C(=O)NCC(=O)Nc2nc(-c3cccc(C4(O)CCOCC4)c3)cs2)c1 [Compound 141, N-(2-((4-(3-(4-hydroxytetrahydro-2H-pyran-4-yl)phenyl)thiazol-2-yl)amino)-2-oxoethyl)-1-(methylsulfonyl)-1H-pyrrole-3-carboxamide] | > 0.1 | > 0.1 |
| CC(C)(C)n1ccc(C(=O)NCC(=O)Nc2nc(-c3ccc4cncnc4c3)cs2)c1 [Compound 142] | > 0.1 | > 0.1 |
| CN1CCn2nc(-c3cccc(-c4csc(NC(=O)CNC(=O)c5ccn(C(C)(C)C)c5)n4)c3)cc2C1 [Compound 143, 1-(tert-butyl)-N-(2-((4-(3-(5-methyl-4,5,6,7-tetrahydropyrazolo[1,5-a]pyrazin-2-yl)phenyl)thiazol-2-yl)amino)-2-oxoethyl)-1H-pyrrole-3-carboxamide] | > 0.1 | > 0.1 |
| Cn1ccc(-c2cccc(-c3csc(NC(=O)CNC(=O)c4ccn(C5(C)COC5)c4)n3)c2)n1 [Compound 144] | > 0.01 | > 0.01 |
| Cn1ccc(-c2cccc(-c3csc(NC(=O)CNC(=O)c4ccn(C(C)(C)C)c4)n3)n2)n1 [Compound 145] | > 0.01 | > 0.01 |
| CS(=O)(=O)n1ccc(C(=O)NCC(=O)Nc2nc(-c3c[nH]c(-c4ccncc4)n3)cs2)c1 [Compound 146, 1-(methylsulfonyl)-N-(2-oxo-2-((4-(2-(pyridin-4-yl)-1H-imidazol-4-yl)thiazol-2-yl)amino)ethyl)-1H-pyrrole-3-carboxamide] | > 1 | > 1 |
| CS(=O)(=O)n1ccc(C(=O)NCC(=O)Nc2nc(-c3cccc(CCc4ccncc4)c3)cs2)c1 [Compound 151, 1-(methylsulfonyl)-N-(2-oxo-2-((4-(3-(2-(pyridin-4-yl)ethyl)phenyl)thiazol-2-yl)amino)ethyl)-1H-pyrrole-3-carboxamide] | < 0.01 | < 0.01 |
| CN(C(=O)CNC(=O)c1ccn(S(C)(=O)=O)c1)c1nc(-c2cccc(-c3ccncc3)c2)cs1 [Compound 152] | > 0.1 | > 0.1 |

More lines, now with the values ahead:

| IC50 (BRM) [µM] | IC50 (BRG-1) [µM] | SMILES |
| --- | --- | --- |
| < 0.01 | > 0.01 | Cn1ccc2ccc(-c3csc(NC(=O)CNC(=O)c4ccn(C(C)(C)C)c4)n3)cc2c1=O [Compound 123, 1-(tert-butyl)-N-(2-((4-(2-methyl-1-oxo-1,2-dihydroisoquinolin-7-yl)thiazol-2-yl)amino)-2-oxoethyl)-1H-pyrrole-3-carboxamide] |
| > 0.01 | > 0.01 | CC(C)(C)n1ccc(C(=O)NCC(=O)Nc2nc(-c3cccc(COC4CCOCC4)c3)cs2)c1 [Compound 125, 1-(tert-butyl)-N-(2-oxo-2-((4-(3-(((tetrahydro-2H-pyran-4-yl)oxy)methyl)phenyl)thiazol-2-yl)amino)ethyl)-1H-pyrrole-3-carboxamide] |
| > 0.01 | > 0.1 | CC(OC1CCOCC1)c1cccc(-c2csc(NC(=O)CNC(=O)c3ccn(C(C)(C)C)c3)n2)c1 (stereo not shown) [Compound 126, 1-(tert-butyl)-N-(2-oxo-2-((4-(3-(1-((tetrahydro-2H-pyran-4-yl)oxy)ethyl)phenyl)thiazol-2-yl)amino)ethyl)-1H-pyrrole-3-carboxamide] |
| > 0.1 | > 0.1 | CN1CCC(OCc2cccc(-c3csc(NC(=O)CNC(=O)c4ccn(C(C)(C)C)c4)n3)c2)CC1 [Compound 127, 1-(tert-butyl)-N-(2-((4-(3-(((1-methylpiperidin-4-yl)oxy)methyl)phenyl)thiazol-2-yl)amino)-2-oxoethyl)-1H-pyrrole-3-carboxamide] |
| > 0.01 | > 0.01 | CC(C)(C)n1ccc(C(=O)NCC(=O)Nc2nc(-c3cccc(COC4CCOC4)c3)cs2)c1 (stereo not shown) [Compound 129, 1-(tert-butyl)-N-(2-oxo-2-((4-(3-(((tetrahydrofuran-3-yl)oxy)methyl)phenyl)thiazol-2-yl)amino)ethyl)-1H-pyrrole-3-carboxamide] |
| > 0.1 | > 0.1 | CN1CCc2cc(-c3csc(NC(=O)CNC(=O)c4ccn(S(C)(=O)=O)c4)n3)ccc2C1 [Compound 130, N-(2-((4-(2-methyl-1,2,3,4-tetrahydroisoquinolin-6-yl)thiazol-2-yl)amino)-2-oxoethyl)-1-(methylsulfonyl)-1H-pyrrole-3-carboxamide] |
| > 0.1 | > 0.1 | Cn1c(=O)ccc2ccc(-c3csc(NC(=O)CNC(=O)c4ccn(C(C)(C)C)c4)n3)cc21 [Compound 133, 1-(tert-butyl)-N-(2-((4-(1-methyl-2-oxo-1,2-dihydroquinolin-7-yl)thiazol-2-yl)amino)-2-oxoethyl)-1H-pyrrole-3-carboxamide] |
| > 0.01 | < 0.01 | CN1CCc2ccc(-c3csc(NC(=O)CNC(=O)c4ccn(S(C)(=O)=O)c4)n3)cc2C1=O [Compound 137, N-(2-((4-(2-methyl-1-oxo-1,2,3,4-tetrahydroisoquinolin-7-yl)thiazol-2-yl)amino)-2-oxoethyl)-1-(methylsulfonyl)-1H-pyrrole-3-carboxamide] |
| < 0.01 | > 0.01 | CS(=O)(=O)n1ccc(C(=O)NCC(=O)Nc2nc(-c3cccc(OCc4ccncc4)n3)cs2)c1 [Compound 147] |
| < 0.01 | < 0.01 | CS(=O)(=O)n1ccc(C(=O)NCC(=O)Nc2nc(-c3cccc(/C=C/c4ccncc4)c3)cs2)c1 [Compound 150] |
| > 0.1 | > 0.1 | CC(C)(NC(=O)c1ccn(S(C)(=O)=O)c1)C(=O)Nc1nc(-c2cccc(-c3ccncc3)c2)cs1 [Compound 153] |

From patent publication US20230079819A1, “COMPOUNDS AND USES THEREOF” (Foghorn Therapeutics Inc., priority 2019, published 2023)
